Measured values published in patent US20230382863A1, “MEK INHIBITORS AND USES THEREOF” (Ikena Oncology, Inc., priority 2022, published 2023).

Tests used:
uMEK/BRAF = uMEK/BRAF (Homo sapiens (Human), UniProt Q02750); assay: MEK-RAF Binding Assay (uMEK/BRAF HTRF)
pERK HCT-116 (G13D) = pERK HCT-116 (G13D) ICW (4 hour); type: cell-based; details: Homo sapiens, read-out: pERK HCT-116 (G13D) ICW (4 hour): Average IC50 (nM)
[1] = Cassette pharmacokinetics studies in mice; type: in vivo; details: male, Balb/c, plasma; Mouse, PO, 5 mg/kg
Method: Pharmacokinetics studies were conducted using cassette dosing protocols, with test compounds administered per mouse. Treatment groups were 3 mice (˜6-8 weeks old, ˜20-30 g Balb/c male mice) per route of administration. Compounds were formulated in 5% DMSO and 95% PEG400 with final concentrations of 0.5 mg/mL for IV and PO dosing. Compounds were dosed at 2 mg/kg for IV dosing and 5 mg/kg for PO dosing. Blood samples were withdrawn at 0.083, 0.25, 0.5, 1.0, 2.0, 4.0, 6.0, 8.0, and 24 hours following IV dosing, and 0.25, 0.5, 1.0, 2.0, 4.0, 6.0, 8.0, and 24 hours following PO dosing. Blood samples were centrifuged at 4,000 g for 5 minutes at 4° C. to obtain plasma samples. Plasma samples were diluted with acetonitrile containing internal standard, vortexed for 30 seconds, then centrifuged at 4,000 rpm for 15 minutes at 4° C. The supernatant was diluted with water, and compound concentration was determined by HPLC/MS/MS compared to calibration standards of 0.5-1,000 ng/mL.
Where route is listed as “IV*”, the compound was dosed IV at 1 mg/kg.

[2] = test system: Phosphorylation of ERK1/2 in AsPC1 cells; assay: 4 hour pERK1/2 HTRF Assay; type: cell-based; details: Homo sapiens, ASPC1, read-out: pERK AsPC-1 HTRF (4 hour): Average IC50 (nM); AsPC-1, 4 hour
Method: AsPC1 cells were seeded at 20,000 cells/well overnight in 96-well plates, then treated with a 12-point dose response of compounds (Starting dose of 3000 nM and 3-fold dilution) for 4 hours. AsPC1 cells are a K-Ras mutant cell line. Phosphorylation of ERK1/2 on residues Thr202 and Tyr204 were detected using a Homogenous Time-Resolved Fluorescence (HTRF) assay (Cisbio Cat #64ERKPEG). Briefly, ERK phosphorylation was detected using a sandwich assay format using two phospho-ERK specific antibodies, one labelled with EU^3+-Cryptate (donor) and the second with d2 (acceptor). The Fluorescence Resonance Energy Transfer (FRET) towards the d2 acceptor was detected at a wavelength of 665 nm. ERK1/2 phosphorylation levels were normalized to total ERK1/2 protein levels in each well. IC50 values were determined by fitting a variable slope, four parameters curve to the compound concentration to normalized Phospho-ERK1/2 relationship.

Compound	IC50 [2]	also measured
Cc1c(Oc2cccc(N=S(C)(N)=O)c2)c(C(=O)NC2CC2)c(Nc2ccc(I)cc2F)n(C)c1=O (stereo in doubt) [Compound I-7, (S)-4-(3-((amino(methyl)oxo-lambda6-sulfaneylidene)amino)phenoxy)-N-cyclopropyl-2-((2-fluoro-4-iodophenyl)amino)-1,5-dimethyl-6-oxo-1,6-dihydropyridine-3-carboxamide]	–	IC50 (uMEK/BRAF): < 100 nM; IC50 (pERK HCT-116 (G13D)): < 100 nM
CNS(=O)(=O)Nc1cc(Oc2c(C(=O)NC3CC3)c(Nc3ccc(I)cc3F)n(C)c(=O)c2C)ccc1Cl [Compound I-19]	–	IC50 (uMEK/BRAF): 100 to 1000 nM
CNS(=O)(=O)Nc1cc(C)cc(Oc2c(C(=O)NC3CC3)c(Nc3ccc(I)cc3F)n(C)c(=O)c2C)c1 [Compound I-21]	–	IC50 (uMEK/BRAF): 100 to 1000 nM
CNS(=O)(=O)Nc1cccc(Oc2c(C(=O)NC3CC3)c(Nc3ccc(I)cc3F)n(C)c(=O)c2C)c1C(F)(F)F [Compound I-37]	–	AUC(0-inf) [1]: 12900 ng·h/mL; AUC(0-t) [1]: 12900 ng·h/mL; Cmax [1]: 1730 ng/mL; Tmax [1]: 1.7 h; half-life [1]: 1.99 h
CNS(=O)(=O)Nc1c(F)ccc(Oc2c(C(=O)NC3CC3)c(Nc3ccc(I)cc3F)n(C)c(=O)c2C)c1Cl [Compound I-38]	< 100 nM	IC50 (uMEK/BRAF): < 100 nM
CNS(=O)(=O)Nc1cccc(Oc2c(C(=O)NCC3CC3)c(Nc3ccc(I)cc3F)n(C)c(=O)c2C)c1Cl [Compound I-39]	< 100 nM	IC50 (uMEK/BRAF): < 100 nM
CNS(=O)(=O)Nc1cccc(Nc2c(C(=O)OC3CC3)c(Nc3ccc(I)cc3F)n(C)c(=O)c2C)c1Cl [Compound I-47]	< 100 nM	–
CNS(=O)(=O)Nc1ccc(Oc2c(C(=O)NC3CC3)c(Nc3ccc(I)cc3F)n(C)c(=O)c2C)c(Cl)c1 [Compound I-63]	100 to 1000 nM	IC50 (uMEK/BRAF): 100 to 1000 nM
CNS(=O)(=O)Nc1ccc(Oc2c(C(=O)NC3CC3)c(Nc3ccc(I)cc3F)n(C)c(=O)c2C)cc1 [Compound I-64]	100 to 1000 nM	IC50 (uMEK/BRAF): 100 to 1000 nM; AUC(0-inf) [1]: 505 ng·h/mL; AUC(0-t) [1]: 492 ng·h/mL; Cmax [1]: 231 ng/mL; Tmax [1]: 0.8 h; half-life [1]: 2.1 h
CNS(=O)(=O)n1ccc2ccc(Oc3c(C(=O)NC4CC4)c(Nc4ccc(I)cc4F)n(C)c(=O)c3C)cc21 [Compound I-78]	1000 to 10000 nM	IC50 (uMEK/BRAF): 100 to 1000 nM
CNS(=O)(=O)Nc1cccc(Oc2c(C(=O)N3CCC3)c(Nc3ccc(I)cc3F)n(C)c(=O)c2C)c1Cl [Compound I-79]	< 100 nM	IC50 (uMEK/BRAF): 100 to 1000 nM
Cc1c(Oc2cccc(N)c2Cl)c(C(=O)NC2CC2)c(Nc2ccc(I)cc2F)n(C)c1=O [Compound I-86]	< 100 nM	IC50 (uMEK/BRAF): < 100 nM
CCc1c(Oc2cccc(NS(=O)(=O)NC)c2Cl)c(C(=O)NC2CC2)c(Nc2ccc(I)cc2F)n(C)c1=O [Compound I-92]	100 to 1000 nM	–
CNS(=O)(=O)Nc1ccnc(Oc2c(C(=O)NC3CC3)c(Nc3ccc(I)cc3F)n(C)c(=O)c2C)c1Cl [Compound I-93]	< 100 nM	–
Cc1c(Oc2cccc(N(C3CC3)S(=O)(=O)NC3CC3)c2Cl)c(C(=O)NC2CC2)c(Nc2ccc(I)cc2F)n(C)c1=O [Compound I-94]	100 to 1000 nM	–
Cc1c(Oc2cccc(N(CC(F)(F)F)S(=O)(=O)NC3CC3)c2Cl)c(C(=O)NC2CC2)c(Nc2ccc(I)cc2F)n(C)c1=O [Compound I-95]	< 100 nM	–
CNS(=O)(=O)Nc1cccc(Oc2c(C(=O)NC3CC3)c(Nc3ccc(I)cc3F)n(C)c(=O)c2C)n1 [Compound I-96]	100 to 1000 nM	–
CNS(=O)(=O)N(CC(F)(F)F)c1cccc(Oc2c(C(=O)NC3CC3)c(Nc3ccc(I)cc3F)n(C)c(=O)c2C)c1Cl [Compound I-97]	100 to 1000 nM	–
CCN(c1cccc(Oc2c(C(=O)NC3CC3)c(Nc3ccc(I)cc3F)n(C)c(=O)c2C)c1Cl)S(=O)(=O)NC1CC1 [Compound I-98]	100 to 1000 nM	–
Cc1c(Oc2cccc(N(C)S(=O)(=O)NC3CC3)c2Cl)c(C(=O)NC2CC2)c(Nc2ccc(I)cc2F)n(C)c1=O [Compound I-99]	< 100 nM	–
CNS(=O)(=O)N(C)c1cccc(Oc2c(C(=O)NC3CC3)c(Nc3ccc(I)cc3F)n(C)c(=O)c2C)c1Cl [Compound I-100]	< 100 nM	–
CCN(C1CC1)S(=O)(=O)Nc1cccc(Oc2c(C(=O)NC3CC3)c(Nc3ccc(I)cc3F)n(C)c(=O)c2C)c1Cl [Compound I-101]	< 100 nM	–

Compound	IC50 [2]	also measured
Cc1c(Oc2cccc(NS(=O)(=O)N(C)C3CC3)c2Cl)c(C(=O)NC2CC2)c(Nc2ccc(I)cc2F)n(C)c1=O [Compound I-102]	< 100 nM	–
Cc1c(Oc2cccc(NS(=O)(=O)N3CCC3)c2C(F)(F)F)c(C(=O)NC2CC2)c(Nc2ccc(I)cc2F)n(C)c1=O [Compound I-103]	< 100 nM	–
Cc1c(Oc2cccc(NS(=O)(=O)N3CC(F)C3)c2Cl)c(C(=O)NCC(F)(F)F)c(Nc2ccc(I)cc2F)n(C)c1=O [Compound I-104]	< 100 nM	–
Cc1c(Oc2cccc(NS(=O)(=O)N(C)C)c2Cl)c(C(=O)NCC(F)(F)F)c(Nc2ccc(I)cc2F)n(C)c1=O [Compound I-105]	< 100 nM	–
Cc1c(Oc2cccc(NS(=O)(=O)N3CCC3)c2Cl)c(C(=O)NCC(F)(F)F)c(Nc2ccc(I)cc2F)n(C)c1=O [Compound I-106]	< 100 nM	–
Cc1c(Oc2cccc(NS(=O)(=O)N3CC(F)C3)c2Cl)c(C(=O)NC2CC2)c(Nc2ccc(I)cc2F)n(C)c1=O [Compound I-107]	< 100 nM	–
Cc1c(Oc2cccc(NS(=O)(=O)N3CCC3)c2Cl)c(C(=O)NC2CC2)c(Nc2ccc(I)cc2F)n(C)c1=O [Compound I-108]	< 100 nM	–
CNS(=O)(=O)Nc1cccc(Oc2c(C(=O)NC3CC3)c(Nc3ccc(I)cc3F)n(C)c(=O)c2C)c1Cl [Compound I-109]	< 100 nM	–
CCN(CC)S(=O)(=O)Nc1cccc(Oc2c(C(=O)NC3CC3)c(Nc3ccc(I)cc3F)n(C)c(=O)c2C)c1Cl [Compound I-110]	< 100 nM	–
CCN(C)S(=O)(=O)Nc1cccc(Oc2c(C(=O)NC3CC3)c(Nc3ccc(I)cc3F)n(C)c(=O)c2C)c1Cl [Compound I-111]	< 100 nM	–
Cc1c(Oc2cccc(NS(N)(=O)=O)c2Cl)c(C(=O)NC2CC2)c(Nc2ccc(I)cc2F)n(C)c1=O [Compound I-112]	< 100 nM	AUC(0-inf) [1]: 5830 ng·h/mL; AUC(0-t) [1]: 5370 ng·h/mL; Cmax [1]: 979 ng/mL; Tmax [1]: 1.3 h; half-life [1]: 2.27 h
Cc1c(Oc2cccc(NS(=O)(=O)N(C)C)c2Cl)c(C(=O)NC2CC2)c(Nc2ccc(I)cc2F)n(C)c1=O [Compound I-113]	< 100 nM	–
CNS(=O)(=O)Nc1ccnc(Oc2c(C(=O)NC3CC3)c(Nc3ccc(I)cc3F)n(C)c(=O)c2C)c1OC [Compound I-115]	< 100 nM	–
CNS(=O)(=O)Nc1cncc(Oc2c(C(=O)NC3CC3)c(Nc3ccc(I)cc3F)n(C)c(=O)c2C)c1OC [Compound I-116]	1000 to 10000 nM	–
CCn1c(Nc2ccc(I)cc2F)c(C(=O)NC2CC2)c(Oc2cccc(NS(=O)(=O)NC)c2Cl)c(C2CC2)c1=O [Compound I-117]	1000 to 10000 nM	–
CNS(=O)(=O)Nc1cccc(Oc2c(C(=O)NCC[C@H](O)CO)c(Nc3ccc(I)cc3F)n(C)c(=O)c2C)c1Cl [Compound I-118]	< 100 nM	–
CNS(=O)(=O)Nc1cccc(Oc2c(C(=O)NCC[C@@H](O)CO)c(Nc3ccc(I)cc3F)n(C)c(=O)c2C)c1Cl [Compound I-119]	< 100 nM	–
CCc1c(Oc2cccc(NS(=O)(=O)NC)c2Cl)c(C(=O)NC2CC2)c(Nc2ccc(I)cc2F)n(C2CC2)c1=O [Compound I-120]	1000 to 10000 nM	–
CNS(=O)(=O)Nc1nccc(Oc2c(C(=O)NC3CC3)c(Nc3ccc(I)cc3F)n(C)c(=O)c2C)c1Cl [Compound I-121]	< 100 nM	–
CNS(=O)(=O)Nc1cncc(Oc2c(C(=O)NC3CC3)c(Nc3ccc(I)cc3F)n(C)c(=O)c2C)c1Cl [Compound I-122]	100 to 1000 nM	–
CNS(=O)(=O)Nc1cccc(Oc2c(C(=O)N(C)C3CCC3)c(Nc3ccc(I)cc3F)n(C)c(=O)c2C)c1 [Compound I-133]	–	AUC(0-inf) [1]: 28 ng·h/mL; AUC(0-t) [1]: 27 ng·h/mL; Cmax [1]: 41.2 ng/mL; Tmax [1]: 0.2 h; half-life [1]: 0.4 h
N-cyclopropyl-4-((2,2-dioxido-3,4-dihydro-1H-benzo[c][1,2,6]thiadiazin-7-yl)oxy)-2-((2-fluoro-4-iodophenyl)amino)-1,5-dimethyl-6-oxo-1,6-dihydropyridine-3-carboxamide [Compound I-14]	–	IC50 (uMEK/BRAF): 100 to 1000 nM
